Results as given in patent US20090312288A1 (TAKEDA PHARMACEUTICAL COMPANY LIMITED, priority 2008, published 2009).

What follows are molecules tested against Aurora B/INCENP (Homo sapiens, UniProt Q96GD4) (assay: Determination of inhibition of AIK: Aurora B/INCENP direct fluorescence polarization (IMAP) assay). Details: 10 uM ATP, 0.8 nM Aurora B/INCENP; values given as bins; read-out: IC50 of Exemplified Compounds Against AIK B.
Chain of Aurora B/INCENP (Q96GD4 whole entry): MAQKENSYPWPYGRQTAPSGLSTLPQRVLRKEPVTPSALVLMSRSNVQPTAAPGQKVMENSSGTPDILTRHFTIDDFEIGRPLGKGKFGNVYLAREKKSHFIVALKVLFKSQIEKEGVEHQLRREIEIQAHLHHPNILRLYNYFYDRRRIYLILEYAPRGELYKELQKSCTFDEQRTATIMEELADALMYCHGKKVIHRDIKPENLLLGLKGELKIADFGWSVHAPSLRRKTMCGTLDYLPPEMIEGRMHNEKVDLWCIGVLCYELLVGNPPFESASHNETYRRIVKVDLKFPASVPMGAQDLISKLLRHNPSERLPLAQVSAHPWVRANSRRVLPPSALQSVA
Chain of Aurora B/INCENP (Q9NQS7 whole entry partner): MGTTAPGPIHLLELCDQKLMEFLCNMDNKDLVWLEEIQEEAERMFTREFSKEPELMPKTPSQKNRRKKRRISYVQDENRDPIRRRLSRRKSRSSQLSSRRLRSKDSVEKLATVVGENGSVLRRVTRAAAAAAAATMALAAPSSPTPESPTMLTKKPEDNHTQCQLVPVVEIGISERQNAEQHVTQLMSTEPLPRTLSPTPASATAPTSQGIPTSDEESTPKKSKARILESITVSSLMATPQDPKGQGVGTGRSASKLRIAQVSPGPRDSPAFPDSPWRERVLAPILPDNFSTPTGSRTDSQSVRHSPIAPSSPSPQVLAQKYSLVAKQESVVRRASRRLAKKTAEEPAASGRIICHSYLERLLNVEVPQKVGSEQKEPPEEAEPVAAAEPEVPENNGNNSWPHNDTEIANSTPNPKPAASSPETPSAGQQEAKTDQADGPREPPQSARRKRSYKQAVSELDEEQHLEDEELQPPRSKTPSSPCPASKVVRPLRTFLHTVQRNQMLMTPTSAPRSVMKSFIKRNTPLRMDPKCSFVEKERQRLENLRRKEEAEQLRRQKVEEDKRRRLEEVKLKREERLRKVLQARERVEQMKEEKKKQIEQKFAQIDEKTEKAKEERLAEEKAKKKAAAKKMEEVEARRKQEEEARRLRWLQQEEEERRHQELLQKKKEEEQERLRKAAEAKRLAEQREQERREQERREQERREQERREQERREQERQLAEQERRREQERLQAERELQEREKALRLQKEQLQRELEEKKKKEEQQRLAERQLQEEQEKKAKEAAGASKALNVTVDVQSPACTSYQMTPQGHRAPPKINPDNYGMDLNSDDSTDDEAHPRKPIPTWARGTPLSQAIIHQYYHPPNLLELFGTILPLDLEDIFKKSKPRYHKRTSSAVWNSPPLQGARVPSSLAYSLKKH
Format: biochemical
Experimental: Detection of the reaction product is performed by addition of Progressive IMAP binding reagent (Molecular Devices). Reaction product may be determined quantitatively by FP using an Analyst HT plate reader (Molecular Devices) with an excitation wavelength at 485 nm and emission at 530 nm and using a Fluorescein 505 dichroic mirror.
The assay reaction may be initiated as follows: 2 ul of (3×) 300 nM Fl-Peptide/30 uM ATP was added to each well of the plate, followed by the addition of 2 ul of (3×) inhibitor (2 fold serial dilutions for 11 data points for each inhibitor) containing 15% DMSO. Two microliters of (3×) 2.4 nM AuroraB/INCENP solution may be added to initiate the reaction (final enzyme concentration was 0.8 nM for Aurora B/INCENP). The reaction mixture may then be incubated at room temperature for 45 min, and quenched and developed by addition of 20 ul of 1 to 400 diluted Progressive IMAP binding reagent in 1× proprietary Progressive IMAP binding buffer A. Fluorescence polarization readings of the resulting reaction mixtures may be measured after a 60-minute incubation at room temperature.
IC50 values may be calculated by non-linear curve fitting of the compound concentrations and fluorescent polarization values to the standard IC50 equation.
`CCS(=O)(=O)c1cccc(-c2cc(CN(C)C)cc3[nH]c4ncc(C)cc4c23)c1` [Compound 135, [5-(3-Ethanesulfonyl-phenyl)-3-methyl-9H-pyrido[2,3-b]indol-7-ylmethyl]-dimethyl-amine] was tested, and the IC50 was over 13 nM. Molecule `CCS(=O)(=O)c1cccc(-c2cc(CN3CCOCC3)cc3[nH]c4ncc(C)cc4c23)c1` [Compound 136, 5-(3-Ethanesulfonyl-phenyl)-3-methyl-7-morpholin-4-ylmethyl-9H-pyrido[2,3-b]indole] has an IC50 of over 13 nM. `CCS(=O)(=O)c1cccc(-c2cc(CN3CCN(C)CC3)cc3[nH]c4ncc(C)cc4c23)c1` [Compound 137, 5-(3-Ethanesulfonyl-phenyl)-3-methyl-7-(4-methyl-piperazin-1-ylmethyl)-9H-pyrido[2,3-b]indole] showed an IC50 of 8.6 to 13 nM. For `CCS(=O)(=O)c1cccc(-c2cc(CN3CCCC3)cc3[nH]c4ncc(C)cc4c23)c1` [Compound 138, 5-(3-Ethanesulfonyl-phenyl)-3-methyl-7-pyrrolidin-1-ylmethyl-9H-pyrido[2,3-b]indole], the IC50 was over 13 nM. Molecule `CCNCc1cc(-c2cccc(S(=O)(=O)CC)c2)c2c(c1)[nH]c1ncc(C)cc12` [Compound 139, [5-(3-Ethanesulfonyl-phenyl)-3-methyl-9H-pyrido[2,3-b]indol-7-ylmethyl]-ethyl-amine] has an IC50 of over 13 nM. `CCS(=O)(=O)c1cccc(-c2cc(C(=O)O)cc3[nH]c4ncc(C)cc4c23)c1` [Compound 140, 5-(3-Ethanesulfonyl-phenyl)-3-methyl-9H-pyrido[2,3-b]indole-7-carboxylic acid] gave an IC50 of 4 to 5.5 nM. In the case of `CCS(=O)(=O)c1cccc(-c2cc(C(=O)N3CCN(C)CC3)cc3[nH]c4ncc(C)cc4c23)c1` [Compound 141, [5-(3-Ethanesulfonyl-phenyl)-3-methyl-9H-pyrido[2,3-b]indol-7-yl]-(4-methyl-piperazin-1-yl)-methanone], the IC50 is reported as over 13 nM. In the case of `CCS(=O)(=O)c1cccc(-c2cc(C(=O)NCCN(C)C)cc3[nH]c4ncc(C)cc4c23)c1` [Compound 142, 5-(3-Ethanesulfonyl-phenyl)-3-methyl-9H-pyrido[2,3-b]indole-7-carboxylic acid (2-dimethylamino-ethyl)-amide], the IC50 is reported as 5.6 to 8.5 nM. `CCS(=O)(=O)c1cccc(-c2cc(C(=O)NCCCN(C)C)cc3[nH]c4ncc(C)cc4c23)c1` [Compound 143, 5-(3-Ethanesulfonyl-phenyl)-3-methyl-9H-pyrido[2,3-b]indole-7-carboxylic acid (3-dimethylamino-propyl)-amide] showed an IC50 of over 13 nM. `CCS(=O)(=O)c1cccc(-c2cc(C(=O)N3CCC(N(C)C)C3)cc3[nH]c4ncc(C)cc4c23)c1` (stereo not shown) [Compound 145, (3-Dimethylamino-pyrrolidin-1-yl)-[5-(3-ethanesulfonyl-phenyl)-3-methyl-9H-pyrido[2,3-b]indol-7-yl]-methanone] gave an IC50 of over 13 nM. Work on `CCNC(=O)c1cc(-c2cccc(S(=O)(=O)CC)c2)c2c(c1)[nH]c1ncc(C)cc12` [Compound 146, N-ethyl-5-(3-(ethylsulfonyl)phenyl)-3-methyl-9H-pyrido[2,3-b]indole-7-carboxamide] yielded an IC50 of 5.6 to 8.5 nM. Work on `CCS(=O)(=O)c1cccc(-c2c(Br)c(C(=O)OC)cc3[nH]c4ncc(C)cc4c23)c1` [Compound 147, 6-Bromo-5-(3-ethanesulfonyl-phenyl)-3-methyl-9H-pyrido[2,3-b]indole-7-carboxylic acid methyl ester] yielded an IC50 of over 13 nM. `CCS(=O)(=O)c1cccc(-c2cc(C(=O)OC)c(Br)c3[nH]c4ncc(C)cc4c23)c1` [Compound 148, 8-Bromo-5-(3-ethanesulfonyl-phenyl)-3-methyl-9H-pyrido[2,3-b]indole-7-carboxylic acid methyl ester] showed an IC50 of 4 to 5.5 nM. `CCS(=O)(=O)c1cccc(-c2c(Cl)c(C(=O)OC)cc3[nH]c4ncc(C)cc4c23)c1` [Compound 149, 6-Chloro-5-(3-ethanesulfonyl-phenyl)-3-methyl-9H-pyrido[2,3-b]indole-7-carboxylic acid methyl ester] showed an IC50 of over 13 nM. Work on `CCS(=O)(=O)c1cccc(-c2cc(C(=O)OC)c(Cl)c3[nH]c4ncc(C)cc4c23)c1` [Compound 150, 8-Chloro-5-(3-ethanesulfonyl-phenyl)-3-methyl-9H-pyrido[2,3-b]indole-7-carboxylic acid methyl ester] yielded an IC50 of 4 to 5.5 nM. For `Cc1cnc2[nH]c3cc(C(=O)O)cc(SCc4ccccc4)c3c2c1` [Compound 151, 5-(benzylthio)-3-methyl-9H-pyrido[2,3-b]indole-7-carboxylic acid], the IC50 was over 13 nM. Work on `Cc1cnc2[nH]c3cc(C(=O)NCCN(C)C)cc(SCc4ccccc4)c3c2c1` [Compound 152, 5-(benzylthio)-N-(2-(dimethylamino)ethyl)-3-methyl-9H-pyrido[2,3-b]indole-7-carboxamide] yielded an IC50 of over 13 nM. Work on `CCNS(=O)(=O)c1cccc(-c2cc(C(=O)NC3CCN(C)CC3)c(C)c3[nH]c4ncc(C)cc4c23)c1` [Compound 153] yielded an IC50 of over 13 nM. `Cc1cnc2[nH]c3c(C)c(C(=O)NC4CCN(C)CC4)cc(-c4cccc(S(=O)(=O)C5CC5)c4)c3c2c1` [Compound 154, 5-(3-(cyclopropylsulfonyl)phenyl)-3,8-dimethyl-N-(1-methylpiperidin-4-yl)-9H-pyrido[2,3-b]indole-7-carboxamide] was tested, and the IC50 was 8.6 to 13 nM. In the case of `CCS(=O)(=O)c1cccc(-c2ccc(O)c3[nH]c4ncc(C)cc4c23)c1` [Compound 158, 5-(3-(ethylsulfonyl)phenyl)-3-methyl-9H-pyrido[2,3-b]indol-8-ol], the IC50 is reported as under 4 nM. `COc1ccc(-c2cccc(S(=O)(=O)N3CCCC3)c2)c2c1[nH]c1ncc(C)cc12` [Compound 159, 8-methoxy-3-methyl-5-(3-(pyrrolidin-1-ylsulfonyl)phenyl)-9H-pyrido[2,3-b]indole] showed an IC50 of 8.6 to 13 nM. `COc1ccc(-c2cccc(S(=O)(=O)[C@@H]3CCNC3)c2)c2c1[nH]c1ncc(C)cc12` [Compound 160, (R)-8-methoxy-3-methyl-5-(3-(pyrrolidin-3-ylsulfonyl)phenyl)-9H-pyrido[2,3-b]indole] was tested, and the IC50 was 5.6 to 8.5 nM. `COc1ccc(-c2cccc(NC(C)=O)c2)c2c1[nH]c1ncc(C)cc12` [Compound 162, N-(3-(8-methoxy-3-methyl-9H-pyrido[2,3-b]indol-5-yl)phenyl)acetamide] gave an IC50 of 5.6 to 8.5 nM. With `COc1ccc(-c2cccc(NC(=O)C3CC3)c2)c2c1[nH]c1ncc(C)cc12` [Compound 163, N-(3-(8-methoxy-3-methyl-9H-pyrido[2,3-b]indol-5-yl)phenyl)cyclopropanecarboxamide] the IC50 was 8.6 to 13 nM. In the case of `COc1ccc(-c2cccc(C(=O)NC3CC3)c2)c2c1[nH]c1ncc(C)cc12` [Compound 164, N-cyclopropyl-3-(8-methoxy-3-methyl-9H-pyrido[2,3-b]indol-5-yl)benzamide], the IC50 is reported as 5.6 to 8.5 nM. `CCN(CC)C(=O)c1cccc(-c2ccc(OC)c3[nH]c4ncc(C)cc4c23)c1` [Compound 165, N,N-diethyl-3-(8-methoxy-3-methyl-9H-pyrido[2,3-b]indol-5-yl)benzamide] showed an IC50 of 4 to 5.5 nM. For `COc1ccc(-c2ccc3c(c2)OCO3)c2c1[nH]c1ncc(C)cc12` [Compound 166, 5-(benzo[d][1,3]dioxol-5-yl)-8-methoxy-3-methyl-9H-pyrido[2,3-b]indole], the IC50 was over 13 nM. In the case of `COc1ccc(-c2cccc(C(=O)NCCO)c2)c2c1[nH]c1ncc(C)cc12` [Compound 168, N-(2-hydroxyethyl)-3-(8-methoxy-3-methyl-9H-pyrido[2,3-b]indol-5-yl)benzamide], the IC50 is reported as 8.6 to 13 nM.
